According to publication PMC10253817, “Design, Pharmacological Characterization, and Molecular Docking of Minimalist Peptidomimetic Antagonists of α4β1 Integrin” (International Journal of Molecular Sciences, 2023):

Columns and labels:
Format in all cases: cell-based
[1] = test system: ERK1/2; assay: Western blot, FN-induced ERK1/2 phosphorylation in Jurkat E6.1 cells; settings: Jurkat E6.1 cells pre-treated with 10^−7, 10^−8, 10^−9 M, then FN (10 µg/mL) 30 min
Description: (§1) To this purpose, Jurkat E6.1 cells were pre-treated with different concentrations (10^−7, 10^−8, 10^−9 M) of the compounds and then exposed to FN (10 µg/mL) for 30 min. […] In addition, the effects observed on intracellular signaling were concentration-dependent, except for compound 13 on AKT activation.
(§2) Western blot analysis was performed as previously described, with the following modifications. […] For integrin antagonists, JurkatE6.1 cells were subsequently incubated with FN (10 μg/mL) at 37 °C for 30 min. At the end of the incubation period, Jurkat E6.1 cells were lysed on ice using T-PER® (Tissue Protein Extraction Reagent, Life Technologies Italia, Milan, Italy), supplemented with a phosphatase inhibitor cocktail. Protein extracts were quantified using a BCA Protein Assay (Pierce, Rockford, IL, USA). The proteins from the cytoplasmatic extract were denatured at 95 °C for 3 min, then equal amounts of protein samples (30–50 μg) were loaded and separated via 12% SDS-PAGE. Proteins were transferred onto a nitrocellulose membrane (Biorad, Hercules, CA, USA), which was blocked with 5% nonfat milk in a Tris-buffered saline (10 mM Tris-HCl, pH 8, containing 150 mM NaCl) containing 0.1% Tween 20 for 1 h at room temperature. Membranes were stained overnight at 4 °C with anti-actin antibody (1:5000, Merck Life Science, Milan, Italy) or with anti-phospho-ERK1/2, anti-total ERK1/2, anti-phospho-AKT, anti-total-AKT, or anti-phospho-JNK antibodies (1:1000; Cell Signaling Technology, Danvers, MA, USA). The membranes were incubated with anti-rabbit peroxidase-conjugated secondary antibodies at a dilution of 1:8000. Blots were developed with a SuperSignal West Pico chemiluminescent substrate. Protocols for digital image acquisition and analysis have previously been described.

[2] = test system: AKT; assay: Western blot, FN-induced AKT phosphorylation in Jurkat E6.1 cells; settings: Jurkat E6.1 cells pre-treated with 10^−7, 10^−8, 10^−9 M, then FN (10 µg/mL) 30 min
Description: as §1, §2

[3] = biological target: T1, α4β1 integrin (Homo sapiens, UniProt P05556+P13612); assay: α4β1 integrin-mediated Jurkat E6.1 cell adhesion to FN; settings: Jurkat E6.1 cell adhesion to FN (10 μg/mL); antag. = reduced cell adhesion; mean ± SD
T1 construct: Jurkat E6.1 cell line, which endogenously expresses α4β1 integrin; host or cells: Jurkat E6.1
Description: To investigate the ability of the new peptides to modulate integrin-mediated cell adhesion, we employed cell adhesion assays using a Jurkat E6.1 cell line, which endogenously expresses α4β1 integrin and the natural ligand FN. […] On the contrary, ligands able to increase cell adhesion are defined as agonists.
The assays were performed as previously described. Briefly, regarding adhesion assays on Jurkat E6.1 or HL-60 cells, black 96-well plates (Corning Costar) were coated overnight at 4 °C with FN or Fg (10 μg/mL) or VCAM-1 (2 μg/mL) in order to investigate α4β1 integrin-mediated cell adhesion. To avoid any kind of unspecific binding, plates were incubated with 100 μL/well of blocking solution (1% BSA in HBSS) for 30 min at 37 °C. Cells were counted, stained with the CellTracker green CMFDA (12.5 μM, 30 min at 37 °C, Life Technologies Italia, Milan, Italy) and after three washes, were preincubated with increasing concentrations of new compounds (10^−10–10^−4 M) or with the vehicle (methanol) for 30 min at 37 °C.
Then, cells were plated (500,000/well) on coated wells and incubated for 30 min at 37 °C. Afterwards nonadherent cells were removed via washing with a blocking solution, and the remaining adhered cells were lysed with 0.5% Triton X-100 in PBS (30 min at 4 °C). Green fluorescence was measured (Ex485 nm/Em535 nm) using an EnSpire Multimode Plate Reader (PerkinElmer, Waltham, MA, USA).
In both types of adhesion assay, the number of adherent cells was determined via comparison with a standard curve made in the same plate. Experiments were carried out in quadruplicate and repeated at least three times. Data analysis and EC50 or IC50 values were calculated using GraphPad Prism 9.5.1 (GraphPad Software, San Diego, CA, USA).

T1 sequence (P13612 34-1032): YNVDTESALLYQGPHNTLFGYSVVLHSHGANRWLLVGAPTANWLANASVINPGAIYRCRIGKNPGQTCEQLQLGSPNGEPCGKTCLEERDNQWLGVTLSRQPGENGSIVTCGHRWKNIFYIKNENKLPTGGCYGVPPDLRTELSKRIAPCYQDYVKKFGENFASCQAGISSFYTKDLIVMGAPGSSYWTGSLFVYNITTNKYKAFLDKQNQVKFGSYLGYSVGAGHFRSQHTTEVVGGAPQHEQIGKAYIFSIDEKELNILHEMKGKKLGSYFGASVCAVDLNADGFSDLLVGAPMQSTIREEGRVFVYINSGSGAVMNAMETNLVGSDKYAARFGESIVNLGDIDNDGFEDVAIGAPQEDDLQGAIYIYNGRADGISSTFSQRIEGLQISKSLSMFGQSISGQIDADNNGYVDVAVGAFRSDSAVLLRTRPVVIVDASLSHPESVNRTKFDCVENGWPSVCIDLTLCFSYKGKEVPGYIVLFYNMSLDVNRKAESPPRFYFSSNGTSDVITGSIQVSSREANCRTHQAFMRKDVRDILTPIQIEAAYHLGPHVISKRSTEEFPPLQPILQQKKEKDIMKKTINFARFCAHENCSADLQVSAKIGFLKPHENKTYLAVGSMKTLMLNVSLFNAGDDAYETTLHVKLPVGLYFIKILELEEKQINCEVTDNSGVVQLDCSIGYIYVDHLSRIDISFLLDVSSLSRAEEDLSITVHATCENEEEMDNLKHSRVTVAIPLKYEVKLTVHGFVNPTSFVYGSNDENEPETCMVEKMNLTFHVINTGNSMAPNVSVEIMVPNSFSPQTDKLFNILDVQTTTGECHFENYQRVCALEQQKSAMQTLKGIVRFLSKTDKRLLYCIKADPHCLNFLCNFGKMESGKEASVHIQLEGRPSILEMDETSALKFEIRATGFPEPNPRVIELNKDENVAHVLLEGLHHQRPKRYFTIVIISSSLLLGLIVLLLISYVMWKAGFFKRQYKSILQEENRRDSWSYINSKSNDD
T1 sequence (P05556 21-798): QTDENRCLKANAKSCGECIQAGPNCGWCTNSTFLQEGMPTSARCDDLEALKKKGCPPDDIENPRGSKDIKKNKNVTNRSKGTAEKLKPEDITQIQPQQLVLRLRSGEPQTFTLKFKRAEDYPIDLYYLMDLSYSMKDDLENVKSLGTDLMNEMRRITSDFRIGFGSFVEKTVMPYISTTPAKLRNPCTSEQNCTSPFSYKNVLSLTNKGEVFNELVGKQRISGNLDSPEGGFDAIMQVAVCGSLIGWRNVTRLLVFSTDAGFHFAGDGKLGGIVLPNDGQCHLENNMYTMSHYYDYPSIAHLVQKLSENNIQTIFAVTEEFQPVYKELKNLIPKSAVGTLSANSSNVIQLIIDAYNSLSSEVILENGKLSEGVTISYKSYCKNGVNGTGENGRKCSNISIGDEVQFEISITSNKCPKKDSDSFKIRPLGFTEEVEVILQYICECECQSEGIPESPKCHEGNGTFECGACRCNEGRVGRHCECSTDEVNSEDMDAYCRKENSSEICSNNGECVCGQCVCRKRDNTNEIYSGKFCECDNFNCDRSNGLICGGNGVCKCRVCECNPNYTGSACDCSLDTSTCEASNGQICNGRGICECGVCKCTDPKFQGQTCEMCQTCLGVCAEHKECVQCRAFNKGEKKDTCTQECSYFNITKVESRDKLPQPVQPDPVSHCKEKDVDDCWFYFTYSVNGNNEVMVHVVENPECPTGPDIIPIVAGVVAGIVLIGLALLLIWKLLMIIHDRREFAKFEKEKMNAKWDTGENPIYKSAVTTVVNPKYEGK

Row | SMILES | FN-induced ERK1/2 phosphorylation [1] | FN-induced AKT phosphorylation [2] | IC50 [3] [nM]
1 | CC(=O)N[C@@H](CNC(=O)Cc1ccc(NC(=O)Nc2ccccc2C)cc1)C(=O)NCC(=O)O [compound 3] | significantly prevented | significantly prevented | –
2 | CCCNC(=O)[C@@H](CC(=O)NCC(=O)O)NC(=O)Cc1ccc(NC(=O)Nc2ccccc2C)cc1 [compound 8] | significantly prevented | significantly prevented | –
3 | Cc1ccccc1NC(=O)Nc1ccc(CNC(=O)C[C@@H](C)NC(=O)CC(=O)O)cc1 [compound 13] | significantly prevented | significantly prevented | 416
